Assay results from ChEMBL document CHEMBL1136347, “Synthesis of 17beta-estradiol platinum(II) complexes: biological evaluation on breast cancer cell lines” (Bioorg Med Chem Lett, 2003).
pIC50: −log10 of the molar value.

Legend:
Type in all cases: functional, cell-based
MDA-MB-231 = assay: In vitro inhibition of estrogen receptor negative human breast cancer MDA-MB-231 cell proliferation
ZR-75-1 = assay: In vitro inhibition of estrogen receptor positive human breast cancer ZR-75-1 cell proliferation
Hs-578T = assay: In vitro inhibition of estrogen receptor negative human breast cancer Hs 578.T cell proliferation
MCF7 = assay: In vitro inhibition of estrogen receptor positive human breast cancer MCF-7 cell proliferation

| Substance | pIC50 (MDA-MB-231) | pIC50 (MCF7) | pIC50 (ZR-75-1) | pIC50 (Hs-578T) |
| --- | --- | --- | --- | --- |
| CISPLATIN | 4.90 | 4.78 | 5.03 | 5.04 |
| Cisplatin complex [listing 4 of 8 here] | 4.73 | 4.50 | 4.79 | 4.55 |
| Cisplatin complex [listing 5 of 8 here] | < 4.40 | < 4.40 | 4.50 | < 4.40 |
| Cisplatin complex [listing 6 of 8 here] | – | 4.70 | 4.80 | 4.64 |
| Cisplatin complex [listing 7 of 8 here] | 4.90 | – | 4.85 | 4.76 |

Further substances by rising pIC50 (MDA-MB-231), results first:

| pIC50 (MDA-MB-231) | pIC50 (MCF7) | Substance | pIC50 (ZR-75-1) | pIC50 (Hs-578T) |
| --- | --- | --- | --- | --- |
| 5.04 | 4.87 | Cisplatin complex [listing 2 of 8 here] | 5.03 | 4.91 |
| 5.07 | 5.24 | Cisplatin complex [listing 1 of 8 here] | 5.38 | 5.57 |
| 5.32 | 5.37 | Cisplatin complex [listing 3 of 8 here] | 5.30 | 5.39 |
| 5.33 | 5.40 | Cisplatin complex [listing 8 of 8 here] | 5.60 | 5.46 |
